Assay results reported in US20030195169A1, “Phosphate prodrugs of fluorooxindoles” (priority 2002, published 2003).

Tests used:
[1] = tested on: cloned mammalian (mSlo or hSlo) BK channels heterologously expressed in Xenopus oocytes; experiment: BK-mediated outward current, two-electrode voltage clamp in Xenopus oocytes; format: cell-based; settings: 10 μM; at least 5 oocytes
Description: (§1) The ability of the compound of Formula II to open BK channels and increase whole-cell outward (K^+) BK-mediated currents was assessed under voltage-clamp conditions by determining their ability to increase cloned mammalian (mSlo or hSlo) BK-mediated outward current heterologously expressed in Xenopus oocytes [Butler, A., et al., Science, 261, pp. 221-224 (1993); and Dworetzky, S. I., et al., Mol. Brain Res., 27, pp. 189-193 (1994)]. The two BK constructs employed represent nearly structurally identical homologous proteins, and have proven to be pharmacologically identical in our tests. To isolate BK current from native (background, non-BK) current, the specific and potent BK channel-blocking toxin iberiotoxin (IBTX) [Galvez, A., et al., J. Biol. Chem, 265, pp. 11083-11090 (1990)] was employed at a supramaximal concentration (50 nM). The relative contribution of BK channels current to total outward current was determined by subtraction of the current remaining in the presence of IBTX (non-BK current) from the current profiles obtained in all other experimental conditions (control, drug, and wash). […] The compound of Formula II was shown in at least 5 oocytes at a concentration of 10 μM to increase BK current to 170% of control of IBTX-sensitive current. […]

[2] = tested on: non-BK native currents in the oocytes; experiment: Non-BK native currents in oocytes (current remaining in presence of IBTX); format: cell-based, Xenopus; settings: at the tested concentration
Description: as §1

[3] = tested on: focal cerebral ischemia (MCAO) in the Wistar rat; experiment: Focal stroke model, permanent MCA/CCA occlusion; format: in vivo; settings: 0.3 mg/kg intravenously, single bolus two hours after MCAO; vs vehicle-treated control; 24 hours after MCAO
Description: To determine the ability of the compounds of the present invention to reduce cell loss resulting from neuronal ischemia, a standard focal cerebral ischemia is induced by permanent occlusion of the left middle cerebral artery (MCA) and common carotid artery (CCA) with one hour occlusion of the right CCA in the Wistar rat. The surgeries are performed using the sub-temporal approach of A. Tamura, et al., J. Cereb. Blood Flow Metab., 1, pp. 53-60, (1981) and its modifications [K. Osborne, et al., J. Neurol Neurosurg. Psychiatry, 50, pp. 402-410 (1987) and S. Menzies, et al., Neurosurgery, 31, pp. 100-107, (1992)].
The compound of Formula II was evaluated in the focal stroke model involving permanent occlusion of the left MCA (MCAO) and CCA (CCAO) and temporary occlusion of the right CCA in the Wistar rat [Gribkoff, et al. Nature Med. 7, pp. 471-477 (2001)]. This procedure results in a reliably large neocortical infarct volume that is measured by means of vital dye exclusion in serial slices through the brain 24 hours after MCAO. In the present test, compounds were administered using an i.v. or i.p. route of administration two hours after occlusion.

[4] = cited from earlier work
[5] = tested on: rat traumatic brain injury (TBI) model; experiment: Rat traumatic brain injury (lateral fluid percussion) model, intracranial pressure (ICP) measurement; format: in vivo; settings: 0.08 mg/kg
Description: To determine the ability of the compounds of the present invention to decrease the amount of neuronal damage following head injury, a standard model of traumatic brain injury was employed. The rat traumatic brain injury (TBI) model is used to evaluate compounds for effectiveness in reversing or preventing the deleterious effects of a concussion-like injury. In general, rats in this model were anesthetized, a craniotomy is performed (surgical opening of the skull), and then saline was injected into the opening to produce a precise pulse of increased intracranial pressure (commonly called a fluid percussion injury). Animals were administered compound at the specified doses at 15 minutes following trauma. Animals were euthanized 48 hours post TBI.
Moderate diffuse brain injury (defined by McIntosh, et al. Neuroscience, 28:233-44 (1989)) was induced by a fluid-percussion device. The apparatus produces contusion via the rapid injection of a saline pulse [˜2.1 to 2.7 atmospheres of pressure (atm)] at a constant duration (21-23 millisecond) into a closed cranial cavity. The saline pulse results in the brief displacement and deformation of the underlying cortex. This model is thought to mimic the clinical situation where a patient experiences a concussion-like injury characterized by brief neurological and systemic physiological alterations without severe structural damage. The fluid percussion device produces brain injury without directly impacting the brain. Diffuse brain injury is achieved by the release of a weighted (4.8 kg) metal pendulum from a predetermined height (McIntosh, et al 1989) that strikes a cork-covered piston at the end of a Plexiglass cylindrical reservoir filled with isotonic saline. Varying volumes of saline are injected into the closed cranial cavity producing a pulse of increased intracranial pressure (ICP). Varying the height of the pendulum controls the magnitude of the injury.
In an alternate method, the severity of brain damage was assessed by Intracranial Pressure (ICP) measurement at various intervals post fluid percussion up to 24 hours. In brief, prior to the fluid percussion a burr hole was made 1 mm from the sagittal suture, centered over the right parietal cortex 5 mm from lambda, 5 mm from bregma. Following fluid percussion injury, the trauma cap and cranioplastic cement were removed. In order to achieve adequate ICP values, while still under anesthesia, the craniotomy cap was re-inserted in its original location post fluid percussion. Pre-cut sterile foil was also placed over the craniotomy cap. Cranioplastic cement was placed over the foil to seal the brain cavity. To obtain continuous ICP measurements the probe was inserted into the burr hole and fixed by cranioplastic cement, the animal was then sutured (using 3-0) and the rat was placed in a Hopper cage to allow for free movement during the experiment. Next, the ICP transducer was connected to a Codman ICP monitor for continuous ICP measurements up to 24 hrs post-TBI or post-sham injury. During this time the animal had regular access to water and food. At 24 hrs post-TBI the experiment was terminated and animals were euthanatized by sodium pentobarbital overdose (130 mg/kg; i.p.).
These experiments consist of a sham-vehicle group (SV), a TBI-vehicle group (TV), sham-drug treated groups (SD; 0.08 mg/kg compound of Example 14 [dose equivalent of 0.05 mg/kg compound of Formula (S)-II]) and TBI-drug treated groups (TD; 0.08 mg/kg compound of Example 14). Each sham group acted as a control for the corresponding TBI group. All of the animals underwent anesthesia and surgery. In the TBI groups, brain injury was induced using the lateral fluid-percussion model. Drug treatment was initiated at 15 minutes post-TBI or sham-injury. […] Five minutes post injury absolute ICP (raw data) increased 6.8 mmHg units in TV animals compared to SV animals (SV-5.55 vs. TV-12.35). […]

[6] = Solubility (qualitative statements); format: physicochemical
[7] = Rat blood levels of compound (S)-II after prodrug administration; format: in vivo, male Sprague-Dawley rats; settings: intravenous bolus, dose equivalent to 1 mg/kg of (S)-II; whole blood; LC/MS/MS; n=3 rats/timepoint
Description: The compound of Formula (S)-II or a prodrug of Formula I was administered intravenous bolus to male Sprague-Dawley rats (n=3 rats/timepoint) at a target dose equivalent to 1 mg/kg of the compound of Formula (S)-II. At T=0.25, 1 and 2 hours post-dose, whole blood samples were collected and extracted with acetonitrile. Blood extracts were analyzed by LC/MS/MS for levels of the compound of Formula (S)-II.

Compound: COc1ccc(Cl)cc1C1(F)C(=O)Nc2cc(C(F)(F)F)ccc21 (racemic) [compound of Formula II, 3-(5-chloro-2-methoxyphenyl)-1,3-dihydro-3-fluoro-6-(trifluoromethyl)-2H-indol-2-one]
- BK current, % of control of IBTX-sensitive current [1]: 170 % of control
- effect on non-BK native currents in the oocytes [2]: did not effect non-BK native currents
- reduction of cortical infarct volume [3]: about 28%

Compound: COc1ccc(Cl)cc1[C@]1(F)C(=O)Nc2cc(C(F)(F)F)ccc21 [Compound of Formula (S)-II, (3S)-(+)-(5-chloro-2-methoxyphenyl)-1,3-dihydro-3-fluoro-6-(trifluoromethyl)-2H-indol-2-one]
- aqueous solubility [4]: low aqueous solubility

Compound: COc1ccc(Cl)cc1[C@]1(F)C(=O)N(COP(=O)([O-])[O-])c2cc(C(F)(F)F)ccc21.[K+].[K+] [Example 14, (S)-Phosphoric acid mono-[3-(5-chloro-2-methoxy-phenyl)-3-fluoro-2-oxo-6-trifluoromethyl-2,3-dihydro-indol-1-ylmethyl] ester, potassium salt]
- intra-animal mean ICP reduction, TD ([5]; 30 minutes post injury): −2.85 mmHg
- intra-animal mean ICP reduction, TD ([5]; 45 minutes post injury): −3.95 mmHg
- absolute ICP, TD vs TV, significance ([5]; 45 minutes, 60 minutes, 2, 3, 4 and 24 hours post-TBI): significantly different from TV
- intra-animal mean ICP reduction, TD ([5]; 60 min post injury): −4.5 mmHg
- reduction of absolute ICP, TD vs TV ([5]; 60 minutes post injury (45 minutes post-drug injection)): 3.1 mmHg units
- intra-animal mean ICP reduction, TD ([5]; 2 hours post injury): −4.3 mmHg
- intra-animal mean ICP reduction, TD ([5]; 3 hr post injury): −4.3 mmHg
- intra-animal mean ICP reduction, TD ([5]; 4 hours post injury): −4.15 mmHg
- intra-animal mean ICP reduction, sham-drug group (SD) ([5]; 4 hours post-sham injury): −2.1 mmHg
- intra-animal mean ICP reduction, TD ([5]; 24 hours post injury): −3.05 mmHg
- ICP, SD vs SV, significance ([5]; sham injury, until 4 hours post-sham injury): did not significantly differ from SV

Compound: COc1ccc(Cl)cc1[C@]1(F)C(=O)N(COP(=O)([O-])[O-])c2cc(C(F)(F)F)ccc21.[Mg+2] [Example 18, (S)-Phosphoric acid mono-[3-(5-chloro-2-methoxy-phenyl)-3-fluoro-2-oxo-6-trifluoromethyl-2,3-dihydro-indol-1-ylmethyl] ester, magnesium salt]
- solubility in water [6]: marginally soluble in water
- solubility in organic solvents ([6]; relative to water): more soluble in organic solvents

Compound: (S)-Phosphoric acid mono-[3-(5-chloro-2-methoxy-phenyl)-3-fluoro-2-oxo-6-trifluoromethyl-2,3-dihydro-indol-1-ylmethyl] ester, mono tetrabutylammonium salt [Example 2]
- Truncated Blood AUC(0.25-2 hr) Compound of Formula (S)-II [7]: 188 ng·h/mL
